Results on 16 molecules are retold here after patent publication US12577245B2, “Sulfonyl benzamide derivatives as Bcl-2 inhibitors” (ASCENTAGE PHARMA (SUZHOU) CO., LTD., priority 2021, dated 2026).

The target in this experiment is Bcl-2 G101V (Homo sapiens, UniProt P10415, G101V). Kind of experiment: Bcl-2 G101V inhibition, fluorescence polarization (Flu-BIM tracer) binding assay. Particulars: FP; 20 nM Bcl2, 5 nM Flu-BIM, 1 h incubation; read-out: Bcl-2 G101V (FP). A general note: Fluorescence polarisation rises when a labelled molecule tumbles more slowly, as on binding a larger partner.

Regarding `CC1(C)CCC(CN2CCN(c3ccc(C(=O)NS(=O)(=O)c4ccc(NCC5CCOCC5)c([N+](=O)[O-])c4)c(Oc4cnc5[nH]ccc5c4)c3)CC2)=C(c2ccsc2-c2ccccc2)C1` [Example 35, 2-((1H-pyrrolo[2,3-b]pyridin-5-yl)oxy)-4-(4-((4,4-dimethyl-2-(2-phenylthiophen-3-yl)cyclohex-1-en-1-yl)methyl)piperazin-1-yl)-N-((3-nitro-4-(((tetrahydro-2H-pyran-4-yl)methyl)amino)phenyl)sulfonyl)benzamide], the IC50 worked out at 47.6 nM.
The result for `CC1(C)CCC(CN2CCN(c3ccc(C(=O)NS(=O)(=O)c4ccc(NC[C@H]5CC[C@](C)(O)CC5)c([N+](=O)[O-])c4)c(Oc4cnc5[nH]ccc5c4)c3)CC2)=C(c2cc(-c3ccc(F)c(F)c3F)cs2)C1` [Example 46, 2-((1H-pyrrolo[2,3-b]pyridin-5-yl)oxy)-4-(4-((4,4-dimethyl-2-(4-(2,3,4-trifluorophenyl)thiophen-2-yl)cyclohex-1-en-1-yl)methyl)piperazin-1-yl)-N-((4-((((1r,4r)-4-hydroxy-4-methylcyclohexyl)methyl)amino)-3-nitrophenyl)sulfonyl)benzamide] reads 43.5 nM; that for `CC1(C)CCC(CN2CCN(c3ccc(C(=O)NS(=O)(=O)c4ccc(NCC5CCOCC5)c([N+](=O)[O-])c4)c(Oc4cnc5[nH]ccc5c4)c3)CC2)=C(c2csc(CN3CCOCC3)c2)C1` [Example 21, 2-((1H-pyrrolo[2,3-b]pyridin-5-yl)oxy)-4-(4-((4,4-dimethyl-2-(5-(morpholinomethyl)thiophen-3-yl)cyclohex-1-en-1-yl)methyl)piperazin-1-yl)-N-((3-nitro-4-(((tetrahydro-2H-pyran-4-yl)methyl)amino)phenyl)sulfonyl)benzamide], 64.2 nM.
With `CC1(C)CCC(CN2CCN(c3ccc(C(=O)NS(=O)(=O)c4ccc(NC[C@H]5COCCO5)c([N+](=O)[O-])c4)c(Oc4cnc5[nH]ccc5c4)c3)CC2)=C(c2cc(CN3CCC(F)(F)CC3)cs2)C1` [Example 32, (S)—N-((4-(((1,4-dioxan-2-yl)methyl)amino)-3-nitrophenyl)sulfonyl)-2-((1H-pyrrolo[2,3-b]pyridin-5-yl)oxy)-4-(4-((2-(4-((4,4-difluoropiperidin-1-yl)methyl)thiophen-2-yl)-4,4-dimethylcyclohex-1-en-1-yl)methyl)piperazin-1-yl)benzamide], the IC50 came out at 25.7 nM.
Regarding `CC(CO)c1ccc(-c2csc(C3=C(CN4CCN(c5ccc(C(=O)NS(=O)(=O)c6ccc(NC[C@H]7CC[C@](C)(O)CC7)c([N+](=O)[O-])c6)c(Oc6cnc7[nH]ccc7c6)c5)CC4)CCC(C)(C)C3)c2)c(F)c1` (stereo partly shown) [Example 72, 2-((1H-pyrrolo[2,3-b]pyridin-5-yl)oxy)-4-(4-((2-(4-(2-fluoro-4-(1-hydroxypropan-2-yl)phenyl)thiophen-2-yl)-4,4-dimethylcyclohex-1-en-1-yl)methyl)piperazin-1-yl)-N-((4-((((1r,4r)-4-hydroxy-4-methylcyclohexyl)methyl)amino)-3-nitrophenyl)sulfonyl)benzamide], the IC50 came out at 27 nM.
With `CC1(C)CCC(CN2CCN(c3ccc(C(=O)NS(=O)(=O)c4ccc(NCC5CCOCC5)c([N+](=O)[O-])c4)c(Oc4cnc5[nH]ccc5c4)c3)CC2)=C(c2ccsc2CN2CCOCC2)C1` [Example 25, 2-((1H-pyrrolo[2,3-b]pyridin-5-yl)oxy)-4-(4-((4,4-dimethyl-2-(2-(morpholinomethyl)thiophen-3-yl)cyclohex-1-en-1-yl)methyl)piperazin-1-yl)-N-((3-nitro-4-(((tetrahydro-2H-pyran-4-yl)methyl)amino)phenyl)sulfonyl)benzamide] the figure was 39.1 nM.
With `CC1(C)CCC(CN2CCN(c3ccc(C(=O)NS(=O)(=O)c4ccc(NCC5CCOCC5)c([N+](=O)[O-])c4)c(Oc4cnc5[nH]ccc5c4)c3)CC2)=C(c2csc(C(F)(F)F)c2)C1` [Example 3, 2-((1H-pyrrolo[2,3-b]pyridin-5-yl)oxy)-4-(4-((4,4-dimethyl-2-(5-(trifluoromethyl)thiophen-3-yl)cyclohex-1-en-1-yl)methyl)piperazin-1-yl)-N-((3-nitro-4-(((tetrahydro-2H-pyran-4-yl)methyl)amino)phenyl)sulfonyl)benzamide] the figure was 45.6 nM; with `CCC(O)(CC)c1cc(F)c(-c2csc(C3=C(CN4CCN(c5ccc(C(=O)NS(=O)(=O)c6ccc(NC[C@H]7CC[C@](C)(O)CC7)c([N+](=O)[O-])c6)c(Oc6cnc7[nH]ccc7c6)c5)CC4)CCC(C)(C)C3)c2)c(F)c1` [Example 67, 2-((1H-pyrrolo[2,3-b]pyridin-5-yl)oxy)-4-(4-((2-(4-(2,6-difluoro-4-(3-hydroxypentan-3-yl)phenyl)thiophen-2-yl)-4,4-dimethylcyclohex-1-en-1-yl)methyl)piperazin-1-yl)-N-((4-((((1r,4r)-4-hydroxy-4-methylcyclohexyl)methyl)amino)-3-nitrophenyl)sulfonyl)benzamide], 33.7 nM.
With `CN(C)c1ccccc1-c1csc(C2=C(CN3CCN(c4ccc(C(=O)NS(=O)(=O)c5ccc(NC[C@H]6COCCO6)c([N+](=O)[O-])c5)c(Oc5cnc6[nH]ccc6c5)c4)CC3)CCC(C)(C)C2)c1` [Example 58, (S)—N-((4-(((1,4-dioxan-2-yl)methyl)amino)-3-nitrophenyl)sulfonyl)-2-((1H-pyrrolo[2,3-b]pyridin-5-yl)oxy)-4-(4-((2-(4-(2-(dimethylamino)phenyl)thiophen-2-yl)-4,4-dimethylcyclohex-1-en-1-yl)methyl)piperazin-1-yl)benzamide] the figure was 34.1 nM; with `CC1(C)CCC(CN2CCN(c3ccc(C(=O)NS(=O)(=O)c4ccc(NC[C@H]5CC[C@](C)(O)CC5)c([N+](=O)[O-])c4)c(Oc4cnc5[nH]ccc5c4)c3)CC2)=C(c2cc(-c3ccc(C(C)(O)C(F)(F)F)cc3F)cs2)C1` (stereo partly shown) [Example 78, 2-((1H-pyrrolo[2,3-b]pyridin-5-yl)oxy)-4-(4-((2-(4-(2-fluoro-4-(1,1,1-trifluoro-2-hydroxypropan-2-yl)phenyl)thiophen-2-yl)-4,4-dimethylcyclohex-1-en-1-yl)methyl)piperazin-1-yl)-N-((4-((((1r,4r)-4-hydroxy-4-methylcyclohexyl)methyl)amino)-3-nitrophenyl)sulfonyl)benzamide], 33.2 nM; with `CC1(C)CCC(CN2CCN(c3ccc(C(=O)NS(=O)(=O)c4ccc(NC[C@H]5COCCO5)c([N+](=O)[O-])c4)c(Oc4cnc5[nH]ccc5c4)c3)CC2)=C(c2cc(CN3CCN4CCOC[C@H]4C3)cs2)C1` [Example 30, N-((4-((((S)-1,4-dioxan-2-yl)methyl)amino)-3-nitrophenyl)sulfonyl)-2-((1H-pyrrolo[2,3-b]pyridin-5-yl)oxy)-4-(4-((2-(4-(((R)-hexahydropyrazino[2,1-c][1,4]oxazin-8(1H)-yl)methyl)thiophen-2-yl)-4,4-dimethylcyclohex-1-en-1-yl)methyl)piperazin-1-yl)benzamide], 66 nM.
Turning to `CC1(C)CCC(CN2CCN(c3ccc(C(=O)NS(=O)(=O)c4ccc(NC[C@H]5CC[C@](C)(O)CC5)c([N+](=O)[O-])c4)c(Oc4cnc5[nH]ccc5c4)c3)CC2)=C(c2cc(-c3c(F)cc(C(C)(C)C(=O)O)cc3F)cs2)C1` [Example 82, 2-(4-(5-(2-((4-(3-((1H-pyrrolo[2,3-b]pyridin-5-yl)oxy)-4-(((4-((((1r,4r)-4-hydroxy-4-methylcyclohexyl)methyl)amino)-3-nitrophenyl)sulfonyl)carbamoyl)phenyl)piperazin-1-yl)methyl)-5,5-dimethylcyclohex-1-en-1-yl)thiophen-3-yl)-3,5-difluorophenyl)-2-methylpropanoic acid], the IC50 was 22.3 nM.
With `CC1(C)CCC(CN2CCN(c3ccc(C(=O)NS(=O)(=O)c4ccc(NC[C@H]5COCCO5)c([N+](=O)[O-])c4)c(Oc4cnc5[nH]ccc5c4)c3)CC2)=C(c2cc(-c3ccc(F)cc3F)cs2)C1` [Example 42, (S)—N-((4-(((1,4-dioxan-2-yl)methyl)amino)-3-nitrophenyl)sulfonyl)-2-((1H-pyrrolo[2,3-b]pyridin-5-yl)oxy)-4-(4-((2-(4-(2,4-difluorophenyl)thiophen-2-yl)-4,4-dimethylcyclohex-1-en-1-yl)methyl)piperazin-1-yl)benzamide] the figure was 50.7 nM.
On to `CC(C)c1sccc1C1=C(CN2CCN(c3ccc(C(=O)NS(=O)(=O)c4ccc(NCC5CCOCC5)c([N+](=O)[O-])c4)c(Oc4cnc5[nH]ccc5c4)c3)CC2)CCC(C)(C)C1` [Example 11, 2-((1H-pyrrolo[2,3-b]pyridin-5-yl)oxy)-4-(4-((2-(2-isopropylthiophen-3-yl)-4,4-dimethylcyclohex-1-en-1-yl)-methyl)piperazin-1-yl)-N-((3-nitro-4-(((tetrahydro-2H-pyran-4-yl)methyl)amino)-phenyl)sulfonyl)benzamide], for which the IC50 stood at 37.6 nM.
Turning to `CC1(C)CCC(CN2CCN(c3ccc(C(=O)NS(=O)(=O)c4ccc(NCC5CCOCC5)c([N+](=O)[O-])c4)c(Oc4cnc5[nH]ccc5c4)c3)CC2)=C(c2ccc(CN3CCOCC3)s2)C1` [Example 26, 2-((1H-pyrrolo[2,3-b]pyridin-5-yl)oxy)-4-(4-((4,4-dimethyl-2-(5-(morpholinomethyl)thiophen-2-yl)cyclohex-1-en-1-yl)methyl)piperazin-1-yl)-N-((3-nitro-4-(((tetrahydro-2H-pyran-4-yl)methyl)amino)phenyl)sulfonyl)benzamide], the IC50 turned out to be 57.8 nM.
As to `CC1(C)CCC(CN2CCN(c3ccc(C(=O)NS(=O)(=O)c4ccc(NC[C@H]5CC[C@](C)(O)CC5)c([N+](=O)[O-])c4)c(Oc4cnc5[nH]ccc5c4)c3)CC2)=C(c2cc(-c3ccc(C(F)(F)F)cc3)cs2)C1` [Example 41, 2-((1H-pyrrolo[2,3-b]pyridin-5-yl)oxy)-4-(4-((4,4-dimethyl-2-(4-(4-(trifluoromethyl)phenyl)thiophen-2-yl)cyclohex-1-en-1-yl)methyl)piperazin-1-yl)-N-((4-((((1r,4r)-4-hydroxy-4-methylcyclohexyl)methyl)amino)-3-nitrophenyl)sulfonyl)benzamide], the IC50 amounted to 34.4 nM.
